We go through two substances from patent US6664224B2, “Quaternary ammonium salt and process for the preparation thereof” (priority 2000, dated 2003).

The subject of one series is S. aureus. The series is described as follows: Anti-septic power test (USP XX). The format is cell-based, Staphylococcus aureus. To be noted: test sample 0.002 wt %. The protocol: (§1) Solutions prepared according to the formulation set forth in Tables 10 and 11 below were subjected to anti-septic power test according to the method defined in Pharmacopoeia of the United States XX, 873 (1980). The solutions thus tested were then observed for anti-septic power after 1 hour, 4 hours, 24 hours, 7 days, 14 days, 21 days and 28 days. As test microorganisms, E. coli, P. auru. and S. Aureus were used as bacteria and A. niger and C. albicans were used as fungi. 4BAMP-6C and benzalkonium chloride were used as test samples.

For another series, the system named is P. aeruginosa. The series is described as follows: Anti-septic power test (USP XX). To be noted: test sample 0.002 wt %. The format is cell-based, Pseudomonas aeruginosa. The protocol: as §1
For a further series, the system named is rat. Nature of the series: Oral toxicity test on rat (LD50). The format is in vivo. As to the method:
The quaternary ammonium salt of the invention is a compound having an extremely high safety, i.e., LD50 (rat) of not smaller than 2,000 mg/kg in oral toxicity test on rat.
The sample 4BAMP-6C thus obtained was then determined for oral toxicity (LD50: rat). The results were greater than 2,000 mg/kg.

The subject of series [1] is Staphylococcus aureus IFO 12732. The series is described as follows: MIC by agar plate dilution method. To be noted: S. aureus, 37° C. 24 hours. The format is cell-based. The protocol: MIC value was determined by an agar plate dilution method according to the Law of Japanese Society of Chemotherapy. In some detail, a bacteria solution in stationary state which had been adjusted with a nutrient broth such that the concentration of bacterial suspension reached 10^6 cell/ml was added to agar culture media containing chemical solutions having concentrations which vary in two stages where it was then allowed to stand at a temperature of 37° C. for 24 hours for culture. The bacteria solution was then examined to see if the proliferation of bacteria occurred. Thus, MIC was determined.
The following three kinds of bacteria were used as sample bacteria:
Staphylococcus aureus IFO 12732 (S. aureus)

A further series has as its system Erythrocyte. Nature of the series: Minimum hemolytic activity concentration against erythrocyte. To be noted: human erythrocyte, 37° C. 1 hour, O.D.540, 50% hemolysis. The format is cell-based. As to the method:
Human blood was collected. The sample blood was then mixed with the equal amount of alsebar solution (glucose: 2.05 g; NaCl: 0.42 g; sodium citrate: 0.8 g; citric acid: 0.55 g; pH: 6.1). The mixture was then stored at a temperature of 4° C. Shortly before used for experiment, the alsebar stored blood was subjected to centrifugal separation. Thus, the supernatant liquid and the leukocyte layer on the erythrocyte were removed. To the erythrocyte was then added PBS in an amount of […] that of the erythrocyte to obtain a 50% erythrocyte. 10 μl of the 50% erythrocyte was then mixed with 990 μl of each of chemicals which had been diluted with PBS in amounts varying stepwise. The erythrocyte was acted upon by the chemical at a temperature of 37° C. for 1 hour. The mixture was then subjected to centrifugal separation. The supernatant liquid was collected for the measurement of the optical density at 540 nm (O.D.540). Separately, the foregoing procedure was followed except that no chemicals were used to prepare a 0% hemolytic control. The foregoing procedure was followed except that Milliq water was used instead of PBS to prepare a 100% hemolytic control. For the minimum hemolytic activity concentration of chemical, the minimum concentration at which the hemolytic concentration is […] was determined.

Another series relates to Bacillus cereus IFO 3001. Nature of the series: Minimum bactericidal concentration (MBC) against bacteria. The format is cell-based. To be noted: contact 30° C. 30 minutes, culture 37° C. 24 hours. The protocol: (§2) A bacteria solution in the initial stage of logarithmic productive phase which had been adjusted with a nutrient broth according to an ordinary sterilized water dilution method such that the concentration of bacterial suspension reached 10^6 cell/ml was brought into contact with chemical solutions having concentrations which vary stepwise at a temperature of 30° C. for 30 minutes, and then transplanted to a nutrient broth where it was then allowed to stand at a temperature of 37° C. for 24 hours for culture. The nutrient broth was then examined to see if the proliferation of bacteria occurred. Thus, MBC was determined.
(§3) Five kinds of gram-negative bacteria and four kinds of gram-positive bacteria were used as sample bacteria.
(§4) BAMP-6 (Example 12), BAMD-6,8 (Example 13), BAMT-6 (Example 17) and benzalkonium chloride (Comparative Example 1) were determined for MBC value against 5 kinds of gram-negative bacteria and 4 kinds of gram-positive bacteria in the same manner as in Test Example 1.

In a further series the test system is Proteus rettgeri NIT 96. The series is described as above. The format is cell-based. To be noted: contact 30° C. 30 minutes, culture 37° C. 24 hours. As to the method:
as §2, §3, §4

Series [2] concerns Escherichia coli K12 W 3110. The series is described as above. The format is cell-based. To be noted: contact 30° C. 30 minutes, culture 37° C. 24 hours. As to the method:
as §2, §3, §4

For series [3], the system named is Escherichia coli K12 OUT 8401. The series is described as above. To be noted: contact 30° C. 30 minutes, culture 37° C. 24 hours. The format is cell-based. The protocol: as §2, §3, §4
Series [4] deals with Bacillus subtilis IFO 3134. Described as above. The format is cell-based. To be noted: contact 30° C. 30 minutes, culture 37° C. 24 hours. The protocol: as §2, §3, §4
Series [5] has as its system Pseudomonas aeruginosa ATCC 27583. Described as above. The format is cell-based. To be noted: contact 30° C. 30 minutes, culture 37° C. 24 hours. The protocol:
as §2, §3, §4

Series [6] concerns Klebsiella pneumoniae ATCC 13883. The series is described as above. The format is cell-based. To be noted: contact 30° C. 30 minutes, culture 37° C. 24 hours. As to the method: as §2, §3, §4
Series [7] relates to Staphylococcus aureus IFO 12732. The description is as above. To be noted: contact 30° C. 30 minutes, culture 37° C. 24 hours. The format is cell-based. The protocol:
as §2, §3, §4

For another series, the system named is cornea. To be noted: reported; eye drop; cited from earlier work.
Setting [8] is: Formulation 1 (chondroitin sodium sulfate 1 wt %).

Take “1,4-bis(N,N-dihexyl-N-methylammoniomethyl)phenylene dichloride [Example 4BAMP-6C]”: the “time at which the desired anti-septic effect was confirmed” value with S. aureus (setting [8]), in the series with S. aureus (Formulation 2 (taurin 1 wt %)), with P. aeruginosa (setting [8]) and in the series with P. aeruginosa (Formulation 2 (taurin 1 wt %)) was 1 h each time. The “oral toxicity LD50” value in the series with rat is “greater than 2,000 mg/kg”. The same substance displayed an MIC in [1] of less than 2 ppm. Moreover, the “Minimum hemolytic activity concentration Erythrocyte” value with Erythrocyte was 400 ppm. For the same substance, the MBC in the series on Bacillus cereus IFO 3001 is 4 ppm; with Proteus rettgeri NIT 96, less than 2 ppm; in series [2] it was 16 ppm; in [3], 8 ppm; in [4], less than 2 ppm; in series [5] it was 16 ppm. Also, the MBC in series [6] and in series [7] was less than 2 ppm throughout.
For “benzalkonium chloride [reference compound]”, the “time at which the desired anti-septic effect was confirmed” value in the series with S. aureus (setting [8]) worked out at 4 hrs. hr; with S. aureus (Formulation 2 (taurin 1 wt %)), 4 hrs. hr; in the series on P. aeruginosa (setting [8]), 24 hrs. hr; in the series on P. aeruginosa (Formulation 2 (taurin 1 wt %)) it was 24 hrs. hr. This substance also gave an MIC in series [1] of 16 ppm. Also, the “Minimum hemolytic activity concentration Erythrocyte” value in the series with Erythrocyte is 25 ppm. The “amount incorporated at which the cornea is damaged” value in the series on cornea is no less than 0.01%. For the same substance, the MBC with Bacillus cereus IFO 3001 is reported as 4 ppm; against Proteus rettgeri NIT 96, 16 ppm; in series [2], 16 ppm; in series [3], 8 ppm; in series [4] it was 4 ppm; in series [5], 32 ppm. The MBC is given as 8 ppm in series [6] and less than 2 ppm in [7].
